{
  "source": "patent US6482947B1",
  "about": "“Substituted (hetero) aryl compounds, process for their preparation, agents containing them and their use as safeners” (priority 1992, dated 2002)",
  "key": {"Hordeum vulgare (barley)": {"system": "Hordeum vulgare (barley)", "test": "Safener action on barley, post-emergence greenhouse test, visual damage assessment", "conditions": "no safener", "method": "(§1) Seeds of wheat and barley were placed in sandy loam soil in plastic pots, raised to the 3- to 4-leaf stage in a greenhouse and then treated successively with the compounds according to the invention and the herbicides using the post-emergence method. The herbicides and the compounds of the formula I were applied in the form of aqueous suspensions or emulsions at an application rate of 300 l/ha (converted). 3-4 weeks after the treatment, the plants were assessed visually for damage of any type caused by the herbicides applied, in particular the extent of lasting growth inhibition being taken into account. The assessment was made in percentages compared with untreated controls.\n(§2) Test conditions: Application at the 4-leaf stage; assessment after 4 weeks; 4 replications\nTest conditions: Application at the 3-leaf stage;\nassessment after 2-3 weeks; 4 replications"}, "[1]": {"system": "Triticum aestivum (wheat)", "test": "Safener action on wheat, post-emergence greenhouse test, visual damage assessment", "format": "in vivo", "conditions": "no safener, 4-leaf stage, assessment after 4 weeks", "method": "as §1, §2"}, "[2]": {"system": "Triticum durum (hard wheat)", "test": "Safener action on hard wheat, post-emergence greenhouse test, visual damage assessment", "format": "in vivo", "conditions": "no safener, 4-leaf stage, assessment after 4 weeks", "method": "as §1, §2"}, "Oryza sativa (rice)": {"system": "Oryza sativa (rice)", "test": "Safener action on rice (flooded pots), damage assessment", "format": "in vivo", "conditions": "herbicide 300 g of a.i./ha, no safener; 3-leaf stage, assessment after 3 weeks", "description": "Rice was sown in plastic pots and raised in a greenhouse under optimum growth conditions. After emergence, the pots were filled with water to 2 cm from the top, and this flooding level was maintained throughout the experiment. At the 3- to 4-leaf stage, the plants were then treated with the herbicides and the compounds of the formula I. 3 weeks after treatment, the plants were assessed for damage of any type caused by the herbicides, in particular the extent of lasting growth inhibition and thinning being considered."}, "corn (Zea mays) [3]": {"system": "corn (Zea mays)", "test": "Safener action on corn, post-emergence test, visual damage assessment", "format": "in vivo", "conditions": "no safener, 4-leaf stage, assessment after 4 weeks; for Damage [%] in corn varieties: Felix: variety Felix; for Damage [%] in corn varieties: Mutin: variety Mutin; for Damage [%] in corn varieties: Dea: variety Dea", "text": "Corn plants, weed and weed grasses were raised to the 4- to 5-leaf stage in plastic pots outside or in the greenhouse and treated successively with herbicides and compounds of the formula I according to the invention using the post-emergence method. […] The assessment was made in percent compared with untreated controls."}, "corn (Zea mays) [4]": {"system": "corn (Zea mays)", "test": "Safener action on corn, post-emergence test, visual damage assessment", "format": "in vivo", "conditions": "herbicide 75 g of a.i./ha, no safener; 3-leaf stage, assessment after 3 weeks"}, "[5]": {"system": "Oryza sativa (transplanted)", "test": "Safener action on transplanted rice, application by watering, visual damage assessment", "format": "in vivo", "conditions": "herbicide 450 g of a.i./ha, no safener, 3 days after transplanting, assessed 4 weeks after application", "description": "Rice was sown in sandy soil in pots in a greenhouse and raised to a growth height of 24-25 cm. The rice was then transplanted into a water-covered soil and, 3 days after transplanting, treated with a herbicide or a herbicide/safener combination by watering. 4 weeks after application, plant damage was assessed visually compared with untreated controls (results see Table 9)."}},
  "data": [
    {"smiles": "CCOC(=O)[C@@H](C)Oc1ccc(Oc2nc3ccc(Cl)cc3o2)cc1", "note": "[H1, fenoxaprop-P-ethyl]", "values": [
      {"measurement": "Damage [%] HV", "setting": "Hordeum vulgare (barley); herbicide 100 g of a.i./ha, 4-leaf stage, assessment after 4 weeks", "value": 80, "unit": "%"},
      {"measurement": "Damage [%] HV", "setting": "Hordeum vulgare (barley); herbicide 200 g of a.i./ha, 3-leaf stage, assessment after 2-3 weeks", "value": 85, "unit": "%"},
      {"measurement": "Damage [%] HV", "setting": "Hordeum vulgare (barley); herbicide 200 g of a.i./ha, 4-leaf stage, assessment after 4 weeks", "value": 90, "unit": "%"},
      {"measurement": "Damage [%] HV", "setting": "Hordeum vulgare (barley); herbicide 400 g of a.i./ha, 4-leaf stage, assessment after 4 weeks", "value": 98, "unit": "%"},
      {"measurement": "Damage [%] TA", "setting": "[1]; herbicide 100 g of a.i./ha", "value": 10, "unit": "%"},
      {"measurement": "Damage [%] TA", "setting": "[1]; herbicide 200 g of a.i./ha", "value": 30, "unit": "%"},
      {"measurement": "Damage [%] TA", "setting": "[1]; herbicide 400 g of a.i./ha", "value": 40, "unit": "%"},
      {"measurement": "Damage [%] TD", "setting": "[2]; herbicide 100 g of a.i./ha", "value": 95, "unit": "%"},
      {"measurement": "Damage [%] TD", "setting": "[2]; herbicide 200 g of a.i./ha", "value": 95, "unit": "%"},
      {"measurement": "Damage [%] TD", "setting": "[2]; herbicide 400 g of a.i./ha", "value": 98, "unit": "%"},
      {"measurement": "Damage [%] ORSA", "setting": "Oryza sativa (rice)", "value": 80, "unit": "%"}
    ]},
    {"smiles": "COC(=O)C(C)Oc1ccc(Oc2ccc(Cl)cc2Cl)cc1", "note": "(stereo not shown) [H2, diclofop-methyl]", "values": [
      {"measurement": "Damage [%] HV", "setting": "Hordeum vulgare (barley); herbicide 900 g of a.i./ha, 4-leaf stage, assessment after 4 weeks", "value": 10, "unit": "%"},
      {"measurement": "Damage [%] HV", "setting": "Hordeum vulgare (barley); herbicide 1800 g of a.i./ha, 4-leaf stage, assessment after 4 weeks", "value": 40, "unit": "%"}
    ]},
    {"smiles": "COC(=O)c1ccc(I)cc1S(=O)(=O)NC(=O)Nc1nc(C)nc(OC)n1.[Na]", "note": "[H3, methyl 4-iodo-2-[3-(4-methoxy-6-methyl-1,3,5-triazin-2-yl)ureidosulfonyl]benzoate, sodium salt]", "values": [
      {"measurement": "Damage [%] TA", "setting": "[1]; herbicide 12 g of a.i./ha", "value": 15, "unit": "%"},
      {"measurement": "Damage [%] TA", "setting": "[1]; herbicide 25 g of a.i./ha", "value": 80, "unit": "%"},
      {"measurement": "Damage [%] TA", "setting": "[1]; herbicide 50 g of a.i./ha", "value": 70, "unit": "%"}
    ]},
    {"smiles": "COc1cc(OC)nc(Oc2cccnc2C(=O)OCc2ccccc2)n1", "note": "[H4, benzyl 3-(4,6-dimethoxypyrimidin-2-yloxy)pyridine-2-carboxylate]", "values": [
      {"measurement": "Damage to corn [%] Alois variety", "setting": "corn (Zea mays) [3]; herbicide 38 g of a.i./ha", "value": 20, "unit": "%"},
      {"measurement": "Damage to corn [%] Felix variety", "setting": "corn (Zea mays) [3]; herbicide 38 g of a.i./ha", "value": 0, "unit": "%"},
      {"measurement": "Damage to corn [%] Alois variety", "setting": "corn (Zea mays) [3]; herbicide 75 g of a.i./ha", "value": 40, "unit": "%"},
      {"measurement": "Damage to corn [%] Felix variety", "setting": "corn (Zea mays) [3]; herbicide 75 g of a.i./ha", "value": 30, "unit": "%"},
      {"measurement": "Damage to corn [%] Alois variety", "setting": "corn (Zea mays) [3]; herbicide 150 g of a.i./ha", "value": 55, "unit": "%"},
      {"measurement": "Damage to corn [%] Felix variety", "setting": "corn (Zea mays) [3]; herbicide 150 g of a.i./ha", "value": 50, "unit": "%"},
      {"measurement": "Damage to corn [%] Alois variety", "setting": "corn (Zea mays) [3]; herbicide 300 g of a.i./ha", "value": 60, "unit": "%"},
      {"measurement": "Damage to corn [%] Felix variety", "setting": "corn (Zea mays) [3]; herbicide 300 g of a.i./ha", "value": 60, "unit": "%"}
    ]},
    {"smiles": "COC(=O)c1sccc1NC(=O)Nc1nc(C)nc(OC)n1", "note": "[H7, 1-(2-methoxycarbonylthiophen-3-yl)-3-(4-methoxy-6-methyl-1,3,5-triazin-2-yl)urea]", "values": [
      {"measurement": "Damage [%] in corn varieties: Felix", "setting": "corn (Zea mays) [3]; herbicide 8 g a.i./ha", "value": 0, "unit": "%"},
      {"measurement": "Damage [%] in corn varieties: Felix", "setting": "corn (Zea mays) [3]; herbicide 15 g a.i./ha", "value": 15, "unit": "%"},
      {"measurement": "Damage [%] in corn varieties: Felix", "setting": "corn (Zea mays) [3]; herbicide 30 g a.i./ha", "value": 40, "unit": "%"},
      {"measurement": "Damage [%] in corn varieties: Felix", "setting": "corn (Zea mays) [3]; herbicide 60 g a.i./ha", "value": 75, "unit": "%"},
      {"measurement": "Damage [%] in corn varieties: Mutin", "setting": "corn (Zea mays) [3]; herbicide 8 g a.i./ha", "value": 5, "unit": "%"},
      {"measurement": "Damage [%] in corn varieties: Mutin", "setting": "corn (Zea mays) [3]; herbicide 15 g a.i./ha", "value": 10, "unit": "%"},
      {"measurement": "Damage [%] in corn varieties: Mutin", "setting": "corn (Zea mays) [3]; herbicide 30 g a.i./ha", "value": 30, "unit": "%"},
      {"measurement": "Damage [%] in corn varieties: Mutin", "setting": "corn (Zea mays) [3]; herbicide 60 g a.i./ha", "value": 70, "unit": "%"}
    ]},
    {"smiles": "COc1cc(OC)nc(NC(=O)NS(=O)(=O)c2ncccc2N(C)S(C)(=O)=O)n1", "note": "[H8, 3-(4,6-dimethoxypyrimidin-2-yl)-1-[3(-N-methyl-N-methylsulfonylamino)-2-pyridylsulfonyl]urea]", "values": [
      {"measurement": "Damage in corn [%] Felix variety", "setting": "corn (Zea mays) [4]", "value": 75, "unit": "%"},
      {"measurement": "Damage [%] in corn varieties: Dea", "setting": "corn (Zea mays) [3]; herbicide 25 g a.i./ha", "value": 0, "unit": "%"},
      {"measurement": "Damage [%] in corn varieties: Dea", "setting": "corn (Zea mays) [3]; herbicide 50 g a.i./ha", "value": 0, "unit": "%"},
      {"measurement": "Damage [%] in corn varieties: Dea", "setting": "corn (Zea mays) [3]; herbicide 100 g a.i./ha", "value": 10, "unit": "%"},
      {"measurement": "Damage [%] in corn varieties: Dea", "setting": "corn (Zea mays) [3]; herbicide 200 g a.i./ha", "value": 35, "unit": "%"},
      {"measurement": "Damage [%] in corn varieties: Felix", "setting": "corn (Zea mays) [3]; herbicide 25 g a.i./ha", "value": 25, "unit": "%"},
      {"measurement": "Damage [%] in corn varieties: Felix", "setting": "corn (Zea mays) [3]; herbicide 50 g a.i./ha", "value": 55, "unit": "%"},
      {"measurement": "Damage [%] in corn varieties: Felix", "setting": "corn (Zea mays) [3]; herbicide 100 g a.i./ha", "value": 65, "unit": "%"},
      {"measurement": "Damage [%] in corn varieties: Felix", "setting": "corn (Zea mays) [3]; herbicide 200 g a.i./ha", "value": 70, "unit": "%"},
      {"measurement": "Damage [%] in corn varieties: Mutin", "setting": "corn (Zea mays) [3]; herbicide 25 g a.i./ha", "value": 15, "unit": "%"},
      {"measurement": "Damage [%] in corn varieties: Mutin", "setting": "corn (Zea mays) [3]; herbicide 50 g a.i./ha", "value": 30, "unit": "%"},
      {"measurement": "Damage [%] in corn varieties: Mutin", "setting": "corn (Zea mays) [3]; herbicide 100 g a.i./ha", "value": 60, "unit": "%"},
      {"measurement": "Damage [%] in corn varieties: Mutin", "setting": "corn (Zea mays) [3]; herbicide 200 g a.i./ha", "value": 65, "unit": "%"}
    ]},
    {"smiles": "COP(=S)(OC)SCC(=O)N(c1ccc(Cl)cc1)C(C)C", "note": "[H9, anilofos]", "values": [
      {"measurement": "Damage [%] ORSA-T", "setting": "[5]", "value": 50, "unit": "%"}
    ]}
  ]
}
